These results are taken from ChEMBL document CHEMBL1136617, “Cyclic amidines as benzamide bioisosteres: EPC synthesis and SAR studies leading to the selective dopamine D4 receptor agonist FAUC 312” (Bioorg Med Chem Lett, 2003).

The term Ki denotes the equilibrium dissociation constant of an inhibitor or competing ligand from its target. The term EC50 denotes the concentration giving half of the maximal effect.

For one test, the target named is D(1A) dopamine receptor (Bos taurus, UniProt Q95136). The experiment in a line: In vitro Binding affinity towards dopamine D1 receptor using bovine striatal membrane preparations and antagonist [3H]-SCH- 23390. Set-up: species or system Striatum.
Chain of D(1A) dopamine receptor (Q95136 whole entry): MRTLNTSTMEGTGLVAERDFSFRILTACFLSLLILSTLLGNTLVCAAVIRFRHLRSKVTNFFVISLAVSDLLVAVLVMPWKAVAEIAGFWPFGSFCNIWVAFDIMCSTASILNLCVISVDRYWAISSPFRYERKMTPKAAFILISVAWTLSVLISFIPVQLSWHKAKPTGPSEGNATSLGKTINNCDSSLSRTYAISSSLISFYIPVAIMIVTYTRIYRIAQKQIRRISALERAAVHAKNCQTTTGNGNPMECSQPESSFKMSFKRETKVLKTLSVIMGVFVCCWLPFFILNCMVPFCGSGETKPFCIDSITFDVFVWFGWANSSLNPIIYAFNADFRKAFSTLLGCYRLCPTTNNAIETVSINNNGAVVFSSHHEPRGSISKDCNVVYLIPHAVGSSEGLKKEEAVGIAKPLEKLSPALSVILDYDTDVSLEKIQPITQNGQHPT
Test [1] concerns the target T1, D(2) dopamine receptor (Homo sapiens, UniProt P14416). Kind of test: biochemical. Format: cell-based, CHO.
Test [2] deals with T1, D(2) dopamine receptor. The experiment in a line: biochemical. Format: cell-based, CHO. The source holds these as a separate data set.
Description: In vitro binding affinity to displace [3H]-spiperone from the cloned human dopamine receptor D2 short in CHO cells
Test [3] deals with T2, D(4) dopamine receptor (Homo sapiens, UniProt P21917).
T2 sequence (P21917 whole entry): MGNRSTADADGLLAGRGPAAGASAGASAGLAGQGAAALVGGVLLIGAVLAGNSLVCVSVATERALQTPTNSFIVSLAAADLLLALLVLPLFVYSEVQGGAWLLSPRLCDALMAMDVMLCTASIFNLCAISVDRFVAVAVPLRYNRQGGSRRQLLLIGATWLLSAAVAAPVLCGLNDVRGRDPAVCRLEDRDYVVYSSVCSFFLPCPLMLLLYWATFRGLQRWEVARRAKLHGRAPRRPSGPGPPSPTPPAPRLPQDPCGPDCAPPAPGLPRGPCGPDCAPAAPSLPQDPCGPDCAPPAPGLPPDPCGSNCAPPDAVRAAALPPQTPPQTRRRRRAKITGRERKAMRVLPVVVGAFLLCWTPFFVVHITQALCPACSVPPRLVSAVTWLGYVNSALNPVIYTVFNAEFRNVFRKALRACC
The experiment in a line: biochemical. Format: cell-based, CHO.
Description: In vitro binding affinity to displace [3H]spiperone from the cloned human dopamine receptor D4 in CHO cells

In test [4] the target is T3, D(3) dopamine receptor (Homo sapiens, UniProt P35462). The experiment in a line: biochemical.
T3 sequence (P35462 whole entry): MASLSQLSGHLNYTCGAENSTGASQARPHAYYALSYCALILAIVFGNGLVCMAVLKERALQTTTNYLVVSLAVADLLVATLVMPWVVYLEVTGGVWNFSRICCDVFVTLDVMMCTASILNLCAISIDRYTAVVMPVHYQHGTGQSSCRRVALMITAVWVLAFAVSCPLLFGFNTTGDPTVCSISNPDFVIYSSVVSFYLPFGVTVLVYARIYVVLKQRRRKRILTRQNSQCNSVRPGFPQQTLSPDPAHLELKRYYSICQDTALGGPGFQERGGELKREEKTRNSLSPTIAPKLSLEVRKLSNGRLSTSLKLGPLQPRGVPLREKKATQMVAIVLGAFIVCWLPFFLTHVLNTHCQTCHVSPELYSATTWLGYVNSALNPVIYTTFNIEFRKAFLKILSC
Test [5] concerns the target T4, D(4) dopamine receptor (Homo sapiens) (UniProt P21917).
T4 sequence (whole entry): T2 sequence (P21917 whole entry)
The experiment in a line: In vitro functional assay measuring the [3H]thymidine uptake in growing CHO cells stably expressing the dopamine D4.2 receptor was performed. Format: cell-based.

In test [6] the target is T1, D(2) dopamine receptor. The experiment in a line: In vitro ability to displace [3H]spiperone from the cloned human dopamine D2 short receptor expressed in CHO cells. Format: cell-based.
The target of test [7] is T2, D(4) dopamine receptor. The experiment in a line: Effective concentration for [3H]thymidine uptake in growing CHO cells stably expressing the dopamine D4.2 receptor. It counts as cell-based.
In test [8] the target is T1, D(2) dopamine receptor. The experiment in a line: In vitro ability to displace [3H]spiperone from the cloned human dopamine D2 long receptor expressed in CHO cells. It counts as cell-based.
In test [9] the target is T3, D(3) dopamine receptor. The experiment in a line: In vitro ability to displace [3H]spiperone from cloned human dopamine D3 receptor expressed in CHO cells. Format: cell-based.
For test [10], the target named is T2, D(4) dopamine receptor. Kind of test: In vitro ability to displace [3H]spiperone from the cloned human dopamine D4 receptor expressed in CHO cells. It counts as cell-based.
The target in test [11] is T1, D(2) dopamine receptor. Kind of test: In vitro binding affinity to displace [3H]spiperone from the cloned human dopamine receptor D2 long in CHO cells. Format: cell-based.
The target of test [12] is T1, D(2) dopamine receptor. The experiment in a line: In vitro binding affinity to displace [3H]spiperone from the cloned human dopamine receptor D2 short in CHO cells. It counts as cell-based.
Test [13] addresses T2, D(4) dopamine receptor. Kind of test: In vitro binding affinity to displace [3H]-spiperone from the cloned human dopamine receptor D4 in CHO cells. Format: cell-based.
Test [14] addresses T3, D(3) dopamine receptor. Kind of test: In vitro binding affinity to displace [3H]spiperone from the cloned human dopamine receptor D3 in CHO cells. Format: cell-based.

T1 sequence (P14416 whole entry): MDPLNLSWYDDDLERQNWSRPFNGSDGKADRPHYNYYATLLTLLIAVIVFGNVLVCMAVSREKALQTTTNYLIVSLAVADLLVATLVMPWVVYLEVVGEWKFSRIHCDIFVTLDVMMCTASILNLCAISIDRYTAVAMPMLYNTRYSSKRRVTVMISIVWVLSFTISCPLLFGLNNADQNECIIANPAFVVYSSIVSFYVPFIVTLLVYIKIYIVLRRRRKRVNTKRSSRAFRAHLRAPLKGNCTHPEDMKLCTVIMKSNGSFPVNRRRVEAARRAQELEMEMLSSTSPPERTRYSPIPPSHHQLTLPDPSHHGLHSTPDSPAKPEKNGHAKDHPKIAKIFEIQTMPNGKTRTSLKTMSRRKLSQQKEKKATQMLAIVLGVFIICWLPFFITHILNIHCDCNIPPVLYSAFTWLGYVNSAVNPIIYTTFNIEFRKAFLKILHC

Regarding `c1ccc(C2=NC[C@H](N3CCN(c4ccccc4)CC3)CCN2)cc1`, the Ki at D(1A) dopamine receptor is 23 µM; on D(2) dopamine receptor [1] it was 10 µM; on D(2) dopamine receptor [2], 4.2 µM; on D(4) dopamine receptor [3], 120 nM; on D(3) dopamine receptor [4] it was 12 µM.
Compound `c1ccc(C2=NCC[C@H](CN3CCN(c4ccccc4)CC3)N2)cc1` registered a Stimulation in [5] of 83%.
With `COc1ccc(Br)cc1C1=NCC[C@H](CN2CCN(c3ccccc3)CC2)N1`, the Ki was found to be 15 µM on D(1A) dopamine receptor; 44 µM at D(2) dopamine receptor [1]; 43 µM at D(2) dopamine receptor [2]; 1600 nM on D(4) dopamine receptor [3]; 7.4 µM on D(3) dopamine receptor [4].
On to `O=C1C[C@@H](CN2CCN(c3ccccc3)CC2)N=C(c2ccccc2)N1`, for which the Ki was 8.9 µM on D(1A) dopamine receptor; 18 µM at D(2) dopamine receptor [1]; 6.4 µM on D(2) dopamine receptor [2]; 3700 nM on D(4) dopamine receptor [3]; 20 µM on D(3) dopamine receptor [4].
Regarding `c1ccc(C2=N[C@@H](CN3CCN(c4ccccc4)CC3)CCN2)cc1`, the Ki is 29 µM at D(1A) dopamine receptor; 32 µM on D(2) dopamine receptor [6]; 25 µM at D(2) dopamine receptor [8]; 13 µM at D(3) dopamine receptor [9]; 1.5 nM on D(4) dopamine receptor [10]. The 50% effective concentration (EC50) on D(4) dopamine receptor [7] was 50 nM.
On to `c1ccc(C2=NCC(N3CCN(c4ccccc4)CC3)CCN2)cc1` (single isomer, unassigned), for which the Ki worked out at 23 µM on D(1A) dopamine receptor; 19 µM on D(2) dopamine receptor [1]; 14 µM at D(2) dopamine receptor [2]; 4400 nM on D(4) dopamine receptor [3]; 3.3 µM at D(3) dopamine receptor [4].
The matching figures for `O=C1C[C@H](CN2CCN(c3ccccc3)CC2)N=C(c2ccccc2)N1`: 19 µM, 7.3 µM, 2.8 µM, 460 nM and 12 µM.
As for `c1ccc(C2=NCC[C@@H](CN3CCN(c4ccccc4)CC3)N2)cc1`, the Ki is 39 µM at D(1A) dopamine receptor; 29 µM at D(2) dopamine receptor [11]; 30 µM at D(2) dopamine receptor [12]; 310 nM at D(4) dopamine receptor [13]; 13 µM on D(3) dopamine receptor [14].
Regarding `COc1ccc(Br)cc1C1=NCC[C@@H](CN2CCN(c3ccccc3)CC2)N1`, the Ki at D(1A) dopamine receptor worked out at 9.1 µM; at D(2) dopamine receptor [1], 16 µM; on D(2) dopamine receptor [2], 14 µM; at D(4) dopamine receptor [3] it was 3500 nM; on D(3) dopamine receptor [4], 1.9 µM.
